Assay results reported in PubChem BioAssay AID1963438 (Molecular Pharmacology Branch, DTP, NCI, 2024).

Test system: NCI-H510 multicellular tumor spheroid growth, % test/control
Experiment: Anticancer human tumor NCI-H510 cell line growth inhibition [Asc];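 note: spheroids exposed to agents for 7 days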;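 for viability, T/C: 100% = DMSO vehicle control wells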
Conditions: for IC50: curve of first compound; for viability, T/C: stronger effect = lower value
Method in brief: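 Complex spheroids combining tumor cells with HUVEC endothelial cells and human MSCs, at 37 degrees C, 5% CO2; agents tested alone or combined, half-log dilutions from at or near clinical Cmax, or 10 microM if Cmax unknown.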

[1] = second compound 0.03 µM, first compound 0.0316 µM
[2] = second compound 0.03 µM, first compound 0.1 µM
[3] = second compound 0.03 µM, first compound 0.316 µM
[4] = second compound 0.03 µM, first compound 1 µM
[5] = second compound 0.0949 µM, first compound 0.0316 µM
[6] = second compound 0.0949 µM, first compound 0.1 µM
[7] = second compound 0.0949 µM, first compound 0.316 µM
[8] = second compound 0.0949 µM, first compound 1 µM
[9] = second compound 0.3 µM, first compound 0.0316 µM
[10] = second compound 0.3 µM, first compound 0.1 µM
[11] = second compound 0.3 µM, first compound 0.316 µM
[12] = second compound 0.3 µM, first compound 1 µM
[13] = second compound 0.949 µM, first compound 0.0316 µM
[14] = second compound 0.949 µM, first compound 0.1 µM
[15] = second compound 0.949 µM, first compound 0.316 µM
[16] = second compound 0.949 µM, first compound 1 µM
[17] = second compound 3 µM, first compound 0.0316 µM
[18] = second compound 3 µM, first compound 0.1 µM
[19] = second compound 3 µM, first compound 0.316 µM
[20] = second compound 3 µM, first compound 1 µM

Compound `O=C(c1ccc(F)c(F)c1Nc1ccc(I)cc1F)N1CC(O)([C@@H]2CCCCN2)C1` + CCN1C(C(=O)NC23CCC(C(=O)O)(CC2)CC3)C(c2cccc(Cl)c2F)C2(C(=O)Nc3cc(Cl)ccc32)C12CCCCC2 has an IC50 (second compound 0.03 µM) of over 1000 nM, an IC50 (second compound 0.0949 µM) of over 1000 nM and an IC50 (second compound 0.3 µM) of over 1000 nM. The IC50 (second compound 0.949 µM) was over 1000 nM, the IC50 (second compound 3 µM) was over 1000 nM and the viability, T/C (second compound 0.03 µM, first compound 0.00316 µM) was 95.8%. It also gave a viability, T/C (second compound 0.03 µM, first compound 0.01 µM) of 126%, a viability, T/C [1] of 130% and a viability, T/C [2] of 121%. It also gave a viability, T/C [3] of 103%, a viability, T/C [4] of 103% and a viability, T/C (second compound 0.0949 µM, first compound 0.00316 µM) of 127%. It also gave a viability, T/C (second compound 0.0949 µM, first compound 0.01 µM) of 124%, a viability, T/C [5] of 105% and a viability, T/C [6] of 95.7%. For the same compound, the viability, T/C [7] was 126%, the viability, T/C [8] was 116% and the viability, T/C (second compound 0.3 µM, first compound 0.00316 µM) was 122%. It also gave a viability, T/C (second compound 0.3 µM, first compound 0.01 µM) of 111%, a viability, T/C [9] of 120% and a viability, T/C [10] of 119%. It also gave a viability, T/C [11] of 117%, a viability, T/C [12] of 91.5% and a viability, T/C (second compound 0.949 µM, first compound 0.00316 µM) of 120%. For the same compound, the viability, T/C (second compound 0.949 µM, first compound 0.01 µM) was 132%, the viability, T/C [13] was 132% and the viability, T/C [14] was 131%. For the same compound, the viability, T/C [15] was 118%, the viability, T/C [16] was 116% and the viability, T/C (second compound 3 µM, first compound 0.00316 µM) was 134%. It also gave a viability, T/C (second compound 3 µM, first compound 0.01 µM) of 160%, a viability, T/C [17] of 140% and a viability, T/C [18] of 114%. It also gave a viability, T/C [19] of 124% and a viability, T/C [20] of 127%.
For `C=CC(=O)N1CCN(c2nc(=O)n(-c3c(C)ccnc3C(C)C)c3nc(-c4c(O)cccc4F)c(F)cc23)C(C)C1` (stereo not given) + Cc1c(S(C)(=O)=O)c(-c2cc(F)cc(N3CCN(c4ccc(NS(=O)(=O)c5ccc(NC(CCN6CCC(C(=O)OCCCP(=O)(O)O)CC6)CSc6ccccc6)c(S(=O)(=O)C(F)(F)F)c5)cc4)CC3)c2)c(-c2ccc(Cl)cc2)n1C(C)C, the IC50 (second compound 0.1 µM) was over 10000 nM, the IC50 (second compound 0.316 µM) was over 10000 nM and the IC50 (second compound 1 µM) was over 10000 nM. The IC50 (second compound 3.16 µM) was over 10000 nM, the IC50 (second compound 10 µM) was over 10000 nM and the viability, T/C (second compound 0.1 µM, first compound 0.0316 µM) was 102%. The viability, T/C (second compound 0.1 µM, first compound 0.1 µM) was 110%, the viability, T/C (second compound 0.1 µM, first compound 0.316 µM) was 124% and the viability, T/C (second compound 0.1 µM, first compound 1 µM) was 94.7%. It also gave a viability, T/C (second compound 0.1 µM, first compound 3.16 µM) of 86.3%, a viability, T/C (second compound 0.1 µM, first compound 10 µM) of 98.4% and a viability, T/C (second compound 0.316 µM, first compound 0.0316 µM) of 106%. It also gave a viability, T/C (second compound 0.316 µM, first compound 0.1 µM) of 103%, a viability, T/C (second compound 0.316 µM, first compound 0.316 µM) of 115% and a viability, T/C (second compound 0.316 µM, first compound 1 µM) of 103%. The viability, T/C (second compound 0.316 µM, first compound 3.16 µM) was 109%, the viability, T/C (second compound 0.316 µM, first compound 10 µM) was 86% and the viability, T/C (second compound 1 µM, first compound 0.0316 µM) was 85.6%. It also gave a viability, T/C (second compound 1 µM, first compound 0.1 µM) of 89.5%, a viability, T/C (second compound 1 µM, first compound 0.316 µM) of 115% and a viability, T/C (second compound 1 µM, first compound 1 µM) of 121%. It also gave a viability, T/C (second compound 1 µM, first compound 3.16 µM) of 98.1%, a viability, T/C (second compound 1 µM, first compound 10 µM) of 79.3% and a viability, T/C (second compound 3.16 µM, first compound 0.0316 µM) of 80%. It also gave a viability, T/C (second compound 3.16 µM, first compound 0.1 µM) of 100%, a viability, T/C (second compound 3.16 µM, first compound 0.316 µM) of 117% and a viability, T/C (second compound 3.16 µM, first compound 1 µM) of 118%. The viability, T/C (second compound 3.16 µM, first compound 3.16 µM) was 79.7%, the viability, T/C (second compound 3.16 µM, first compound 10 µM) was 108% and the viability, T/C (second compound 10 µM, first compound 0.0316 µM) was 102%. For the same compound, the viability, T/C (second compound 10 µM, first compound 0.1 µM) was 106%, the viability, T/C (second compound 10 µM, first compound 0.316 µM) was 97.8% and the viability, T/C (second compound 10 µM, first compound 1 µM) was 100%. It also gave a viability, T/C (second compound 10 µM, first compound 3.16 µM) of 89.4% and a viability, T/C (second compound 10 µM, first compound 10 µM) of 81.9%.
For `C=C(F)C(=O)N1CCN(c2nc(OCC3CCCN3C)nc3c2CCN(c2cccc4cccc(Cl)c24)C3)CC1CC#N` (stereo not given) + CCN1C(C(=O)NC23CCC(C(=O)O)(CC2)CC3)C(c2cccc(Cl)c2F)C2(C(=O)Nc3cc(Cl)ccc32)C12CCCCC2, the IC50 (second compound 0.03 µM) was 1170 nM, the IC50 (second compound 0.0949 µM) was 1100 nM and the IC50 (second compound 0.3 µM) was 1280 nM. The IC50 (second compound 0.949 µM) was 717 nM, the IC50 (second compound 3 µM) was 1180 nM and the viability, T/C [1] was 93.8%. It also gave a viability, T/C [2] of 103%, a viability, T/C [3] of 88.3% and a viability, T/C [4] of 58.2%. The viability, T/C (second compound 0.03 µM, first compound 3.16 µM) was 1.61%, the viability, T/C (second compound 0.03 µM, first compound 10 µM) was 0.12% and the viability, T/C [5] was 78.5%. For the same compound, the viability, T/C [6] was 89%, the viability, T/C [7] was 100% and the viability, T/C [8] was 54.6%. The viability, T/C (second compound 0.0949 µM, first compound 3.16 µM) was 3.81%, the viability, T/C (second compound 0.0949 µM, first compound 10 µM) was 0.11% and the viability, T/C [9] was 106%. The viability, T/C [10] was 88%, the viability, T/C [11] was 109% and the viability, T/C [12] was 62.5%. For the same compound, the viability, T/C (second compound 0.3 µM, first compound 3.16 µM) was 7.29%, the viability, T/C (second compound 0.3 µM, first compound 10 µM) was 0.11% and the viability, T/C [13] was 95.3%. The viability, T/C [14] was 91.4%, the viability, T/C [15] was 88.5% and the viability, T/C [16] was 34.3%. It also gave a viability, T/C (second compound 0.949 µM, first compound 3.16 µM) of 4.93%, a viability, T/C (second compound 0.949 µM, first compound 10 µM) of 0.1% and a viability, T/C [17] of 87.5%. The viability, T/C [18] was 121%, the viability, T/C [19] was 95% and the viability, T/C [20] was 52.5%. The viability, T/C (second compound 3 µM, first compound 3.16 µM) was 20.7% and the viability, T/C (second compound 3 µM, first compound 10 µM) was 0.18%.
`CCN1C(C(=O)NC23CCC(C(=O)O)(CC2)CC3)C(c2cccc(Cl)c2F)C2(C(=O)Nc3cc(Cl)ccc32)C12CCCCC2` (stereo not given) + CNC(C)C(=O)NC1CN(S(=O)(=O)c2cccc(S(=O)(=O)N3CCC4CCC(C(=O)NC(c5ccccc5)c5ccccc5)N4C(=O)C(NC(=O)C(C)NC)C3)c2)CCC2CCC(C(=O)NC(c3ccccc3)c3ccccc3)N2C1=O was tested, and the IC50 (second compound 0.01 µM) was over 3000 nM, the IC50 (second compound 0.0316 µM) was over 3000 nM and the IC50 (second compound 0.1 µM) was over 3000 nM. It also gave an IC50 (second compound 0.316 µM) of over 3000 nM, an IC50 (second compound 1 µM) of over 3000 nM and a viability, T/C (second compound 0.01 µM, first compound 0.00949 µM) of 130%. For the same compound, the viability, T/C (second compound 0.01 µM, first compound 0.03 µM) was 104%, the viability, T/C (second compound 0.01 µM, first compound 0.0949 µM) was 101% and the viability, T/C (second compound 0.01 µM, first compound 0.3 µM) was 96.7%. For the same compound, the viability, T/C (second compound 0.01 µM, first compound 0.949 µM) was 108%, the viability, T/C (second compound 0.01 µM, first compound 3 µM) was 104% and the viability, T/C (second compound 0.0316 µM, first compound 0.00949 µM) was 108%. It also gave a viability, T/C (second compound 0.0316 µM, first compound 0.03 µM) of 98.3%, a viability, T/C (second compound 0.0316 µM, first compound 0.0949 µM) of 97.8% and a viability, T/C (second compound 0.0316 µM, first compound 0.3 µM) of 117%. For the same compound, the viability, T/C (second compound 0.0316 µM, first compound 0.949 µM) was 131%, the viability, T/C (second compound 0.0316 µM, first compound 3 µM) was 90.9% and the viability, T/C (second compound 0.1 µM, first compound 0.00949 µM) was 108%. The viability, T/C (second compound 0.1 µM, first compound 0.03 µM) was 113%, the viability, T/C (second compound 0.1 µM, first compound 0.0949 µM) was 106% and the viability, T/C (second compound 0.1 µM, first compound 0.3 µM) was 101%. The viability, T/C (second compound 0.1 µM, first compound 0.949 µM) was 93.5%, the viability, T/C (second compound 0.1 µM, first compound 3 µM) was 121% and the viability, T/C (second compound 0.316 µM, first compound 0.00949 µM) was 95.3%. It also gave a viability, T/C (second compound 0.316 µM, first compound 0.03 µM) of 117%, a viability, T/C (second compound 0.316 µM, first compound 0.0949 µM) of 95.5% and a viability, T/C (second compound 0.316 µM, first compound 0.3 µM) of 109%. For the same compound, the viability, T/C (second compound 0.316 µM, first compound 0.949 µM) was 92.9%, the viability, T/C (second compound 0.316 µM, first compound 3 µM) was 107% and the viability, T/C (second compound 1 µM, first compound 0.00949 µM) was 96.6%. It also gave a viability, T/C (second compound 1 µM, first compound 0.03 µM) of 97.1%, a viability, T/C (second compound 1 µM, first compound 0.0949 µM) of 94.8% and a viability, T/C (second compound 1 µM, first compound 0.3 µM) of 99.2%. For the same compound, the viability, T/C (second compound 1 µM, first compound 0.949 µM) was 97.8% and the viability, T/C (second compound 1 µM, first compound 3 µM) was 115%.
